“Also recorded” adds a separate entry of the source. Read-outs that look alike come from different tables or passages of the source.
Legend:
[1] = test system: 833K cells; assay: Cytotoxicity, XTT assay, 833K cell growth, 72 hr exposure; assay type: cell-based; conditions: for IC50: read-out: Inhibitory Concentrations IC50; for IC70: read-out: Inhibitory Concentrations IC70; for IC95: read-out: Inhibitory Concentrations IC95
Protocol: (§1) The synthesized compounds were evaluated for their cytotoxic effects on HL-60 (human promyelocytic leukemia) and 833K cells. The assay was conducted in 96-well microplates. The compounds were serially diluted in 4 to 6 steps with dimethylsulfoxide and added to cell incubation medium (RPMI 1640 containing 10% fetal. […]) at the final concentration of 1.0% dimethylsulfoxide in the medium. The cytotoxicity of the compounds were determined by the XTT-microculture tetrazolium assay: 2',3'-bis(2-methoxy-4-nitro-5-sulfophenyl)-3-[(phenylamino)carbonyl]-2H-tetrazolium hydroxide (XTT) was prepared at 1 mg/mL in prewarmed (37° C.) medium without serum. Phenazine methosulfate (PMS) and fresh XTT were mixed together to obtain 0.075 mM PMS-XTT solution (25 mL of the stock with 5 mg PMS added per 5 mL of 1 mg/mL XTT). Fifty microliters of this mixture were added to each well of the cell culture after 72 hours exposure to the testing compound. After incubation at 37° C. for 6 hours, the absorbance was determined at 450 nm and 630 nm with a microplate reader (EL 340, Bio-Tek Instruments, Inc., Winooski, Vt.). THe median-effect inhibitory concentration (IC50) was determined from a medium-effect plot using computer software for the purpose.
(§2) The results of the assay of cytotoxicity towards HL-60 and 833K cells of several analogues of camptothecin prepared in accord with the invention are illustrated in the accompanying Tables I and II, along with comparison data for native camptothecin. The data shown indicate that the camptothecin analogues prepared by the new methods provided by the invention have significant cytotoxic activity against cancer cells. […]

[2] = test system: HL-60 cells (human promyelocytic leukemia); assay: Cytotoxicity, XTT assay, HL-60 cell growth, 72 hr exposure; assay type: cell-based
Protocol: as §1, §2

[3] = test system: topoisomerase-I; assay: Inhibition of topoisomerase-I activity (in words); assay type: biochemical
[4] = Reactivity with thiophenol in dichloromethane
Source text: (For a related example of thiophenol addition to α-methylene-γ-lactones, see: Marshall, J. A., et al., J. Org. Chem., 47, 699 (1982).) NMR analysis of the crude reaction mixture indicated formation of the expected adducts 58 and 59.

[5] = test system: B-16 melanoma; assay type: in vivo, BD2 F1 mice
Protocol: Average body weight changes were recorded daily.
Tumor: B16 Melanoma Drug A = Camptothecin
Inoculation: 2 × 10^6 cells. S.C.
(§3) Schedule: QD × 5. I.P. started day 4

[6] = test system: Sarcoma 180
Protocol: The control lane (Table A) indicates separate inoculation of nine mice with B-16 melanoma and sarcoma 180.
Anti-tumor activity of the newly synthesized compounds and the established drugs (as positive controls) against solid tumors (B-16 melanoma and sarcoma 180) was tested in BD2 F1 mice. Tumor (about 2.5×10^6 cells) was inoculated subcutaneously (s.c.). Treatment with the drug started on day 4 after inoculation. The drug was injected intraperitoneously (i.p) daily (QD) for five days. Control mice received the same volume (50 μl) of the solvent vehicle (Dinso) as the drug-treated animals. Tumor size was evaluated every few days using a caliper for both the control and the treated group. Average body weight changes were recorded daily. Any lethality due to high dose drug toxicity or due to tumor progression was also recorded.
as §3

[7] = Cytotoxicity of compound 33 (in words); assay type: cell-based; conditions: relative to camptothecin
[8] = test system: 844K cells; assay: Cytotoxicity, XTT assay, 844K cells (so in the source); assay type: cell-based; conditions: Table II, read-out: Inhibitory Concentrations IC50
Protocol: as §1

[9] = Homo sapiens, HL-60, 72 h, read-out: Inhibitory Concentrations IC50, Table I, HL-60 (head HL-6), 72 hr, XTT
[10] = Homo sapiens, HL-60, 72 h, read-out: Inhibitory Concentrations IC50, Table II, HL-60, 72 hr, XTT
[11] = Homo sapiens, Table I, 72 hr, XTT
[12] = Table I, HL-60 (head HL-6), 72 hr, XTT
[13] = Table I, HL-60 (head HL-6), 72 hr, XTT, read-out: Inhibitory Concentrations IC50
[14] = Table II, HL-60, 72 hr, XTT, read-out: Inhibitory Concentrations IC50
[15] = Table II, HL-60, 72 hr, XTT, read-out: Inhibitory Concentrations IC70
[16] = Table II, HL-60, 72 hr, XTT, read-out: Inhibitory Concentrations IC95
[17] = Homo sapiens, 72 h, Table I, 72 hr, XTT
[18] = Homo sapiens, HL-60, 72 h, Table I, HL-60 (head HL-6), 72 hr, XTT, read-out: Inhibitory Concentrations IC50
[19] = Homo sapiens, HL-60, 72 h, Table I, HL-60 (head HL-6), 72 hr, XTT, read-out: Inhibitory Concentrations IC70
[20] = Homo sapiens, HL-60, 72 h, Table I, HL-60 (head HL-6), 72 hr, XTT, read-out: Inhibitory Concentrations IC95
[21] = Homo sapiens, HL-60, 72 h, Table II, HL-60, 72 hr, XTT, read-out: Inhibitory Concentrations IC50
[22] = Homo sapiens, HL-60, 72 h, Table II, HL-60, 72 hr, XTT, read-out: Inhibitory Concentrations IC70
[23] = Homo sapiens, HL-60, 72 h, Table II, HL-60, 72 hr, XTT, read-out: Inhibitory Concentrations IC95
[24] = B-16 melanoma, 10 mg/kg i.p. QD × 5, day 7
[25] = B-16 melanoma, 30 mg/kg i.p. QD × 5, day 7
[26] = Homo sapiens, HL-60, 72 h, read-out: Inhibitory Concentrations IC70, Table I, HL-60 (head HL-6), 72 hr, XTT
[27] = Homo sapiens, HL-60, 72 h, read-out: Inhibitory Concentrations IC70, Table II, HL-60, 72 hr, XTT
[28] = Homo sapiens, HL-60, 72 h, read-out: Inhibitory Concentrations IC95, Table I, HL-60 (head HL-6), 72 hr, XTT
[29] = Homo sapiens, HL-60, 72 h, read-out: Inhibitory Concentrations IC95, Table II, HL-60, 72 hr, XTT

CCC1(O)C(=O)OCc2c1c(C(=O)OC)c1n(c2=O)Cc2cc3ccccc3nc2-1 (stereo not shown) [WS-5, 14-Carbomethoxy-Camptothecin]
IC50 ([1]; Homo sapiens, 72 h): 63.5 µM
IC70 ([1]; Homo sapiens, 72 h): 83.7 µM
IC95 ([1]; Homo sapiens, 72 h): 898 ± 750 µM
IC50 [2, 9]: > 5 µM
IC50 [2, 10]: > 5 µM

C=C1C(=O)OCc2c1cc1n(c2=O)Cc2cc3ccccc3nc2-1 [Compound 32, 18-nor-anhydrocamptothecin]
inhibition of topoisomerase-I activity [3]: potent camptothecin-like inhibition of topoisomerase-I activity
reaction with thiophenol [4]: consumption of starting material

CCC1C(=O)OCc2c1c(C(=O)OC)c1n(c2=O)Cc2cc3ccccc3nc2-1 (stereo not shown) [WS-4, 14-Carbomethoxy-20-deoxycamptothecin]
IC70 [1, 11]: 5.8 µM
IC95 [1, 11]: 59.8 µM
IC50 ([1]; Table I, 72 hr, XTT): 2.26 µM
Inhibitory Concentrations IC70 [2, 12]: 12.0
Inhibitory Concentrations IC95 [2, 12]: 618.7
IC50 [2, 13]: 2.44 µM
IC50 [2, 14]: 2.44 µM
IC70 [2, 15]: 12.0 µM
IC95 [2, 16]: 618.7 µM

CCC1C(=O)OCc2c1c(C(=O)OC)c1n(c2=O)Cc2cc3ccccc3nc2-1 (stereo not shown) [WS-3, 14-Carbomethoxy-20-deoxycamptothecin]
IC50 ([1]; Table I, 72 hr, XTT): > 50 µM
Inhibitory Concentrations IC70 [2, 12]: 0.318
Inhibitory Concentrations IC95 [2, 12]: 1.082
IC50 [2, 13]: 0.914 µM
IC50 [2, 14]: 0.194 µM
IC70 [2, 15]: 0.318 µM
IC95 [2, 16]: 1.082 µM

CC=C1C(=O)OCc2c1cc1n(c2=O)Cc2cc3ccccc3nc2-1 [WS-8, 20-dehydrated-CPT]
IC50 [1, 17]: 1.7 µM
IC70 [1, 11]: 4.75 µM
IC95 [1, 11]: 50.4 ± 13.8 µM
IC50 [2, 18]: 3.44 µM
IC70 [2, 19]: 5.47 µM
IC95 [2, 20]: 17.1 µM
IC50 [2, 21]: 3.44 µM
IC70 [2, 22]: 5.47 µM
IC95 [2, 23]: 17.1 µM

CCC1C(=O)OCc2c1cc1n(c2=O)Cc2cc3ccccc3nc2-1 (stereo not shown) [WS-2, 20-Deoxycamptothecin]
IC50 [1, 17]: 0.31 µM
IC70 [1, 11]: 0.143 µM
IC95 [1, 11]: 3.17 µM
IC50 [2, 18]: 0.039 µM
IC70 [2, 19]: 0.052 µM
IC95 [2, 20]: 0.109 µM
IC50 [2, 21]: 0.039 µM
IC70 [2, 22]: 0.052 µM
IC95 [2, 23]: 0.109 µM

C=C1C(=O)OCc2c1cc1n(c2=O)Cc2c-1nc1ccc(O)cc1c2CC [Compound 33, 7-Ethyl-10-hydroxy-18-nor-anhydrocamptothecin]
AVERAGE TUMOR VOLUME ([5]; B16 melanoma, 10 mg/kg, day 7): 0.163 CM^3
PERCENT OF CONTROL (tumor volume) ([5]; B16 melanoma, 10 mg/kg, day 7): 85.8%
AVERAGE TUMOR VOLUME ([5]; B16 melanoma, 10 mg/kg, day 14): 2.320 CM^3
AWC (average weight change) ([5]; B16 melanoma, 10 mg/kg, day 14): +2.7 GM
PERCENT OF CONTROL (tumor volume) ([5]; B16 melanoma, 10 mg/kg, day 14): 72.7%
AVERAGE TUMOR VOLUME ([5]; B16 melanoma, 30 mg/kg, day 7): 0.036 CM^3
PERCENT OF CONTROL (tumor volume) ([5]; B16 melanoma, 30 mg/kg, day 7): 18.9%
AVERAGE TUMOR VOLUME ([5]; B16 melanoma, 30 mg/kg, day 14): 2.925 CM^3
AWC (average weight change) ([5]; B16 melanoma, 30 mg/kg, day 14): +2.7 GM
PERCENT OF CONTROL (tumor volume) ([5]; B16 melanoma, 30 mg/kg, day 14): 91.7%
activity compared with authentic camptothecin ([5]; B-16 melanoma and sarcoma 180 together): compares favorably with that of authentic camptothecin
decreased body weight ([5]; B-16 melanoma, 10 mg/kg): 1.4 gm
tumor volume decrease ([5]; B-16 melanoma, 10 mg/kg): 14%
AWC (average weight change) [5, 24]: -1.4 gm
Ave Tumor Volume (T/C) [5, 24]: 0.858
decreased body weight ([5]; B-16 melanoma, 30 mg/kg): 1.9 gm
tumor volume decrease ([5]; B-16 melanoma, 30 mg/kg): 81%
AWC (average weight change) [5, 25]: -1.9 gm
Ave Tumor Volume (T/C) [5, 25]: 0.189
inhibition of topoisomerase-I activity [3]: potent camptothecin-like inhibition of topoisomerase-I activity; also recorded: still retaining enzyme inhibitory function
DEATHS (D/L) ([6]; Sarcoma 180, 10 mg/kg, day 7): 0/2
DEATHS (D/L) ([6]; Sarcoma 180, 10 mg/kg, day 14): 0/2
DEATHS (D/L) ([6]; Sarcoma 180, 30 mg/kg, day 7, death on day 4 after treatment, listed as 18-nor-20-dehydro-7-ethyl-10-hydroxycamptothecin): one of the two subjects died after day 4 of treatment
DEATHS (D/L) ([6]; Sarcoma 180, 30 mg/kg, day 7, death on day 4 after treatment, listed as 20-CH2 -7-Et-10-OH-CPT): One of two mice died on day 4 after treatment
DEATHS (D/L) ([6]; Sarcoma 180, 30 mg/kg, day 7, death on day 4 after treatment, listed as B): 1/2
DEATHS (D/L) ([6]; Sarcoma 180, 30 mg/kg, day 14): 0/1
reaction with thiophenol [4]: consumption of starting material
cytotoxicity [7]: significantly reduced levels relative to camptothecin

CCC1(O)C(=O)OC(C)c2c1cc1n(c2=O)Cc2cc3ccccc3nc2-1 (stereo not shown) [WS-6, 17-Methylcamptothecin]
IC50 ([1]; Homo sapiens, 72 h): 3.71 µM
IC70 ([1]; Homo sapiens, 72 h): 7.34 µM
IC95 ([1]; Homo sapiens, 72 h): 40.1 µM
IC50 [2, 9]: 0.266 µM
IC50 [2, 10]: 0.266 µM
IC70 [2, 26]: 0.432 µM
IC70 [2, 27]: 0.432 µM
IC95 [2, 28]: 1.43 µM
IC95 [2, 29]: 1.43 µM

CC1(O)C(=O)OCc2c1cc1n(c2=O)Cc2cc3ccccc3nc2-1 (stereo not shown) [WS-7, 20-Methylcamptothecin]
IC50 ([1]; Homo sapiens, 72 h): 0.082 µM
IC70 ([1]; Homo sapiens, 72 h): 0.29 µM
IC95 ([1]; Homo sapiens, 72 h): 7.16 µM
IC50 [2, 9]: 0.062 µM
IC50 [2, 10]: 0.062 µM
IC70 [2, 26]: 0.09 µM
IC70 [2, 27]: 0.09 µM
IC95 [2, 28]: 0.229 µM
IC95 [2, 29]: 0.229 µM

CC[C@@]1(O)C(=O)OCc2c1cc1n(c2=O)Cc2cc3c(CN(C)C)c(O)ccc3nc2-1 [Topotecan]
IC50 [8]: 0.046 µM

From US5525731A, “Camptothecin analogues and methods of preparation thereof” (priority 1994, dated 1996)
